For 24 compounds, IC50 results are on record in US9242984B2, “Pyrazolyl derivatives as Syk inhibitors” (Merck Sharp & Dohme Corp., priority 2012, dated 2016).

pIC50: −log10 of the molar value. Read-outs that look alike come from different tables or passages of the source. Where only a bound is given, the exact number is not on record here.

In this assay the target is T1, recombinant human Syk (GST-hSyk fusion protein) (Homo sapiens, UniProt P43405).
T1 construct: purchased Carna Biosciences 08-176
Briefly: Homogeneous Time-Resolved Fluorescence (HTRF) assay for the recombinant human Syk enzyme. It counts as biochemical. The conditions noted are these: 10-dose titration, 25 μM ATP. The procedure:
Syk inhibition may be determined using the following assay protocol:
Homogeneous Time-Resolved Fluorescence (HTRF) Assay for the Recombinant Human Syk Enzyme:
A recombinant GST-hSyk fusion protein was used to measure potency of compounds to inhibit human Syk activity. The recombinant human GST-Syk (Carna Biosciences #08-176) (5 pM final concentration) was incubated with various concentrations of the inhibitor diluted in DMSO (0.1% final concentration) for 10 minutes at room temperature in 15 mM Tris-HCl (pH 7.5), 0.01% tween 20, 2 mM DTT in 384 well plate format. To initiate the reaction the biotinylated substrate peptide (250 nM final concentration) that contains the phosphorylation site for Syk was added with magnesium (5 mM final concentration) and ATP (25 μM final concentration). Final volume of the reaction was 10 μL. Phosphorylation of the peptide was allowed to proceed for 45 minutes at room temperature. To quench the reaction and detect the phosphorylated product, 2 nM of a Europium-anti-phosphotyrosine antibody (Perkin Elmer #AD0161) and 70 nM SA-APC (Perkin-Elmer #CR130-100) were added together in 15 mM Tris pH 7.5, 40 mM EDTA, 0.01% tween 20. Final volume of the quenching solution was 10 μL. The resulting HTRF signal was measured after 30 minutes on an EnVision (Perkin-Elmer) reader using a time-resolved fluorescence protocol. IC50 was determined following 10-dose titration (10 μM to 0.508 nM) and four parameter logistic curve fitting using the Merck Assay Data Analyzer. The rhSyk activity (IC50) is expressed as +++(100 nM or less), ++(between 100 and 1000 nM), +(between 1 and 10 μM).

[1] abbreviates: IC50 class, read-out: rhSYK Activity.

As to `Cc1cc(Nc2nccc(C(F)(F)F)n2)cc(-c2cnn(CC(C)(O)C(N)=O)c2)c1` (single isomer, unassigned) [Example 8.3, 2-hydroxy-2-methyl-3-[4-(3-methyl-5-{[4-(trifluorometh-yl)pyrimidin-2-yl]amino}phenyl)-1H-pyrazol-1-yl]propanamide], the pIC50 under setting [1] was at least 7.00.

Consider `Cc1cc(Nc2nccc(C(F)(F)F)n2)cc(-c2cnn(CC(C)(O)C(N)=O)c2)c1` (single isomer, unassigned) [Example 8.14, 2-hydroxy-2-methyl-3-[4-(3-methyl-5-{[4-(trifluorometh-yl)pyrimidin-2-yl]amino}phenyl)-1H-pyrazol-1-yl]propanamide], for which the pIC50 under setting [1] was at least 7.00.

`Cc1cc(Nc2nccc(C(F)(F)F)n2)cc(-c2cnn(CC(C)(O)C(N)=O)c2)c1` (single isomer, unassigned) [Example 8.15, 2-hydroxy-2-methyl-3-[4-(3-methyl-5-{[4-(trifluorometh-yl)pyrimidin-2-yl]amino}phenyl)-1H-pyrazol-1-yl]propanamide]: under setting [1], the pIC50 is at least 7.00.

For `Cc1cc(Nc2nccc(C(F)(F)F)n2)cc(-c2cnn(C3CCCC(O)C3O)c2)c1` (single isomer, unassigned) [Example 10.1, (R or S) 3-[4-(3-methyl-5-{[4-(trifluoromethyl)pyrimidin-2-yl]amino}phenyl)-1H-pyrazol-1-yl]cyclohexane-1,2-diol], the pIC50 was 8.13 (read-out: rhSYK IC50) and at least 7.00 under setting [1].

Consider `Cc1cc(Nc2nccc(C(F)F)n2)cc(-c2cnn(C3CCCC(O)C3O)c2)c1` (single isomer, unassigned) [Example 10.4, 3-[4-(3-{[4-(difluoromethyl)pyrimidin-2-yl]amino}-5-methylphenyl)-1H-pyrazol-1-yl]cyclohexane-1,2-diol], for which the pIC50 is 8.43 (read-out: rhSYK IC50) and at least 7.00 under setting [1].

Consider `Cc1cc(Nc2nccc(C(F)F)n2)cc(-c2cnn(C3CCCC(O)C3O)c2)c1` (single isomer, unassigned) [Example 10.5, 3-[4-(3-{[4-(difluoromethyl)pyrimidin-2-yl]amino}-5-methylphenyl)-1H-pyrazol-1-yl]cyclohexane-1,2-diol], for which the pIC50 was 8.28 (read-out: rhSYK IC50) and at least 7.00 under setting [1].

As for `Cc1cc(Nc2nccc(C(F)F)n2)cc(-c2cnn(C3CCCC(O)C3O)c2)c1` (single isomer, unassigned) [Example 10.6, 3-[4-(3-{[4-(difluoromethyl)pyrimidin-2-yl]amino}-5-methylphenyl)-1H-pyrazol-1-yl]cyclohexane-1,2-diol], the pIC50 (read-out: rhSYK IC50) was 8.89 and the pIC50 under setting [1] was at least 7.00.

For the compound `Cc1cc(Nc2nccc(C(F)F)n2)cc(-c2cnn(C3CCCC(O)C3O)c2)c1` (single isomer, unassigned) [Example 10.7, 3-[4-(3-{[4-(difluoromethyl)pyrimidin-2-yl]amino}-5-methylphenyl)-1H-pyrazol-1-yl]cyclohexane-1,2-diol], the pIC50 (read-out: rhSYK IC50) was 9.15 and the pIC50 under setting [1] is at least 7.00.

Take `Cc1cc(Nc2ncc(F)c(C(F)F)n2)cc(-c2cnn([C@@H]3CCC[C@@H](O)[C@H]3O)c2)c1` (single isomer, unassigned) [Example 10.11, 3-[4-(3-{[4-(difluoromethyl)-5-fluoro-pyrimidin-2-yl]amino}-5-methylphenyl)-1H-pyrazol-1-yl]cyclohexane-1,2-diol]: the pIC50 was 8.46 (read-out: rhSYK IC50) and at least 7.00 under setting [1].

`Cc1cc(Nc2nccc(C(F)(F)F)n2)cc(-n2cc(C(C)(O)c3ccc(C(=O)O)cc3)cn2)c1` (single isomer, unassigned) [Example 19.7, 4-{1-hydroxy-1-[1-(3-methyl-5-{[4-(trifluoromethyl)pyrimidin-2-yl]amino}phenyl)-1H-pyrazol-4-yl]ethyl}benzoic acid]: the pIC50 under setting [1] was at least 7.00.

As for `Cc1cc(Nc2nccc(C(F)(F)F)n2)cc(-n2cc(C(C)(O)c3ccc(C(=O)O)cc3)cn2)c1` (single isomer, unassigned) [Example 19.8, 4-{1-hydroxy-1-[1-(3-methyl-5-{[4-(trifluoromethyl)pyrimidin-2-yl]amino}phenyl)-1H-pyrazol-4-yl]ethyl}benzoic acid], the pIC50 under setting [1] is at least 7.00.

`Cc1cc(Nc2cc(C(F)(F)F)ccn2)nc(-c2cnn(CC(C)(O)CC#N)c2)c1` (single isomer, unassigned) [Example 20.1, (R or S)-3-Hydroxy-3-methyl-4-(4-(4-methyl-6-((4-(trifluoromethyl)pyridin-2-yl)amino)pyridin-2-yl)-1H-pyrazol-1-yl)butanenitrile]: the pIC50 (read-out: rhSYK IC50) is 8.77 and the pIC50 under setting [1] was at least 7.00.

With `Cc1cc(Nc2nccc(C(F)(F)F)n2)cc(-c2cnn(CC(C)(O)CO)c2)c1` (single isomer, unassigned) [Example 21.1, 2-Methyl-3-(4-(3-methyl-5-((4-(trifluoromethyl)pyrimidin-2-yl)amino)phenyl)-1H-pyrazol-1-yl)propane-1,2-diol], the pIC50 (read-out: rhSYK IC50) is 8.44 and the pIC50 under setting [1] is at least 7.00.

Turning to `Cc1cc(Nc2nccc(C(F)(F)F)n2)cc(-c2cnn(CC(C)(O)CO)c2)c1` (single isomer, unassigned) [Example 21.2, 2-Methyl-3-(4-(3-methyl-5-((4-(trifluoromethyl)pyrimidin-2-yl)amino)phenyl)-1H-pyrazol-1-yl)propane-1,2-diol], the pIC50 under setting [1] was at least 7.00.

On to `Cc1cc(Nc2nccc(C(F)(F)F)n2)cc(-c2cnn([C@@H](C)[C@@](C)(O)CO)c2)c1` (single isomer, unassigned) [Example 21.8, 2-methyl-3-[4-(3-methyl-5-{[4-(trifluoromethyl)pyrimidin-2-yl]amino}phenyl)-1H-pyrazol-1-yl]butane-1,2-diol], for which, under setting [1], the pIC50 is at least 7.00.

On to `Cc1cc(Nc2nccc(C(F)(F)F)n2)cc(-c2cnn(C(C)C(C)(O)CO)c2)c1` (single isomer, unassigned) [Example 21.9, 2-methyl-3-[4-(3-methyl-5-{[4-(trifluoromethyl)pyrimidin-2-yl]amino}phenyl)-1H-pyrazol-1-yl]butane-1,2-diol], for which the pIC50 under setting [1] is at least 7.00.

`Cc1cc(Nc2nccc(C(F)(F)F)n2)cc(-c2cnn([C@@H](C)[C@](C)(O)CO)c2)c1` (single isomer, unassigned) [Example 21.10, 2-methyl-3-[4-(3-methyl-5-{[4-(trifluoromethyl)pyrimidin-2-yl]amino}phenyl)-1H-pyrazol-1-yl]butane-1,2-diol]: the pIC50 under setting [1] is at least 7.00.

Regarding `Cc1cc(Nc2nccc(C(F)(F)F)n2)cc(-c2cnn(C(C)C(C)(O)CO)c2)c1` (single isomer, unassigned) [Example 21.11, 2-methyl-3-[4-(3-methyl-5-{[4-(trifluoromethyl)pyrimidin-2-yl]amino}phenyl)-1H-pyrazol-1-yl]butane-1,2-diol], the pIC50 under setting [1] is at least 7.00.

`Cc1cc(Nc2nccc(C(F)F)n2)cc(-c2cnn(C(C)C(C)(O)CO)c2)c1` (single isomer, unassigned) [Example 22.1, 3-(4-(3-((4-(Difluoromethyl)pyrimidin-2-yl)amino)-5-methylphenyl)-1H-pyrazol-1-yl)-2-methylbutane-1,2-diol]: the pIC50 is 8.89 (read-out: rhSYK IC50) and at least 7.00 under setting [1].

In the case of `Cc1cc(Nc2nccc(C(F)F)n2)cc(-c2cnn(C(C)C(C)(O)CO)c2)c1` (single isomer, unassigned) [Example 22.2, 3-(4-(3-((4-(Difluoromethyl)pyrimidin-2-yl)amino)-5-methylphenyl)-1H-pyrazol-1-yl)-2-methylbutane-1,2-diol], under setting [1], the pIC50 was at least 7.00.

Consider `Cc1cc(Nc2nccc(C(F)(F)F)n2)cc(-c2cnn(C[C@@H]3OC(=O)N[C@H]3C)c2)c1` (single isomer, unassigned) [Example 23.1], for which the pIC50 was 8.92 (read-out: rhSYK IC50) and at least 7.00 under setting [1].

With `Cc1cc(Nc2nccc(C(F)(F)F)n2)cc(-c2cnn(CC3OC(=O)NC3C)c2)c1` (single isomer, unassigned) [Example 23.2, 4-methyl-5-{[4-(3-methyl-5-{[4-(trifluoromethyl)pyrimidin-2-yl]amino}phenyl)-1H-pyrazol-1-yl]methyl}-1,3-oxazolidin-2-one], the pIC50 under setting [1] is at least 7.00.

Turning to `Cc1cc(Nc2nccc(C(F)(F)F)n2)cc(-c2cnn(CC3OC(=O)NC3C(C)C)c2)c1` (single isomer, unassigned) [Example 23.3, 4-(1-methylethyl)-5-{[4-(3-methyl-5-{[4-(trifluoromethyl)pyrimidin-2-yl]amino}phenyl)-1H-pyrazol-1-yl]methyl}-1,3-oxazolidin-2-one], the pIC50 under setting [1] was at least 7.00.

With `Cc1cc(Nc2nccc(C(F)(F)F)n2)cc(-c2cnn(CC3OC(=O)NC3C(C)C)c2)c1` (single isomer, unassigned) [Example 23.4, 4-(1-methylethyl)-5-{[4-(3-methyl-5-{[4-(trifluoromethyl)pyrimidin-2-yl]amino}phenyl)-1H-pyrazol-1-yl]methyl}-1,3-oxazolidin-2-one], the pIC50 under setting [1] was at least 7.00.
